Where two headings read alike, the source gives them in different places.
Experiment: Single-dose pharmacokinetics in healthy volunteers under fasting and fed (high-fat breakfast) conditions, plasma concentrations by HPLC-MS, non-compartmental analysis
Format: in vivo, human
Parameters: Ke: unit not given here
Source text: The bioequivalence clinical trials were phase I, randomized, open-label, crossover, single-centre, with two periods separated by a 7-day washout stage. Subjects were randomised to one of the two treatment sequences, RT or TR where R was the reference formulation and T was the test formulation. Each of the clinical trial was crossover for evaluation of a test formulation compared to a reference formulation either under fed or fasting conditions. […] The treatments were allocated in a balanced manner on every inclusion day (blocks of 4 subjects). Our study adheres to CONSORT guidelines. […] Sample processing, genotyping for CYP2C19 and drug quantification were performed according to Román et al. […] Pharmacokinetic parameters were estimated from the plasma concentration–time data by non-compartmental analysis (WinNonlin Professional, version 2.0., Pharsight Corporation, USA) as reported by Román et al. […] WinNonLin Professional software version 2.0 was used for the statistical analysis. Pharmacokinetic parameters were log-transformed, and AUC and Cmax were adjusted for dose and weight. The values of pharmacokinetic parameters were expressed as mean ± standard deviation.

[1] = Fast, men, single oral dose, mean ± SD
[2] = both sexes, human, plasma, oral, only CYP2C19*1/*1 subjects, Fast, men and women, mean ± SD
[3] = both sexes, human, plasma, oral, only CYP2C19*1/*1 subjects, Fed, men and women, mean ± SD
[4] = both sexes, human, plasma, po, Fast, all subjects, single oral dose, mean ± SD
[5] = both sexes, human, plasma, po, Fed (high-fat breakfast), all subjects, single oral dose, mean ± SD
[6] = female, human, plasma, oral, only CYP2C19*1/*1 subjects, Fast, women, mean ± SD
[7] = female, human, plasma, oral, only CYP2C19*1/*1 subjects, Fed, women, mean ± SD
[8] = female, human, plasma, po, Fast, women, single oral dose, mean ± SD
[9] = female, human, plasma, po, Fed, women, single oral dose, mean ± SD
[10] = male, human, plasma, oral, only CYP2C19*1/*1 subjects, Fast, men, mean ± SD
[11] = male, human, plasma, oral, only CYP2C19*1/*1 subjects, Fed, men, mean ± SD
[12] = male, human, plasma, po, Fast, men, single oral dose, mean ± SD
[13] = male, human, plasma, po, Fed, men, single oral dose, mean ± SD
[14] = only CYP2C19*1/*1 subjects, Fast, men, mean ± SD
[15] = only CYP2C19*1/*1 subjects, Fast, women, mean ± SD
[16] = only CYP2C19*1/*1 subjects, Fed, men and women, mean ± SD
[17] = only CYP2C19*1/*1 subjects, Fed, men, mean ± SD

A Ke (Fast, all subjects, single oral dose, mean ± SD) of 0.76 ± 0.29, a Cmax [1] of 0.8588 ± 0.4326 µg/mL and a Ke [1] of 0.70 ± 0.29 were found for `COc1ccc2[nH]c([S+]([O-])Cc3ncc(C)c(OC)c3C)nc2c1` (stereo not drawn) [Omeprazole, omeprazole] in this work. For the same compound, the Ke (Fast, women, single oral dose, mean ± SD) was 0.82 ± 0.29, the Ke (Fed (high-fat breakfast), all subjects, single oral dose, mean ± SD) was 0.67 ± 0.32 and the Ke (Fed, men, single oral dose, mean ± SD) was 0.69 ± 0.35. The Ke (Fed, women, single oral dose, mean ± SD) was 0.65 ± 0.30, the AUC(0-inf) [2] was 1.71 ± 1.3 µg·h/mL and the CL/F [2] was 0.57 L/h/kg. The Vd/F [2] was 0.69 ± 0.38 L/kg, the half-life [2] was 1 ± 0.4 h and the Cmax (both sexes, human, plasma, oral, only CYP2C19*1/*1 subjects, Fast, men and women, mean ± SD, read-out: Cmax) was 0.86 ± 0.395 µg/mL. It also gave a Tmax (both sexes, human, plasma, oral, only CYP2C19*1/*1 subjects, Fast, men and women, mean ± SD, read-out: Tmax) of 1.8 ± 0.6 h, an AUC(0-inf) [3] of 1.52 ± 1.29 µg·h/mL and a CL/F [3] of 0.62 L/h/kg. It also gave a Vd/F [3] of 0.77 ± 0.43 L/kg, a half-life [3] of 1 ± 0.4 h and a Cmax (both sexes, human, plasma, oral, only CYP2C19*1/*1 subjects, Fed, men and women, mean ± SD, read-out: Cmax) of 0.604 ± 0.363 µg/mL. It also gave a Tmax (both sexes, human, plasma, oral, only CYP2C19*1/*1 subjects, Fed, men and women, mean ± SD, read-out: Tmax) of 4.9 h, a Tmax (both sexes, human, plasma, oral, under fasting conditions, range among subjects, read-out: Tmax range) of 1 to 3.5 h and a Tmax (both sexes, human, plasma, oral, under fed conditions, range among subjects, read-out: Tmax range) of 1 to 17 h. It also gave an AUC(0-inf) [4] of 2.19 ± 2.01 µg·h/mL, a CL/F [4] of 0.53 L/h/kg and a Vd/F [4] of 0.64 ± 0.34 L/kg. For the same compound, the Cmax (both sexes, human, plasma, po, Fast, all subjects, single oral dose, mean ± SD, read-out: Cmax) was 0.931 ± 0.435 µg/mL, the Tmax (both sexes, human, plasma, po, Fast, all subjects, single oral dose, mean ± SD, read-out: Tmax) was 2 ± 0.7 h and the AUC(0-inf) [5] was 1.93 ± 1.88 µg·h/mL. It also gave a CL/F [5] of 0.64 L/h/kg, a Vd/F [5] of 1.02 ± 1.07 L/kg and a Cmax (both sexes, human, plasma, po, Fed (high-fat breakfast), all subjects, single oral dose, mean ± SD, read-out: Cmax) of 0.683 ± 0.394 µg/mL. For the same compound, the Tmax (both sexes, human, plasma, po, Fed (high-fat breakfast), all subjects, single oral dose, mean ± SD, read-out: Tmax) was 4.9 ± 1.1 h, the “AUC lower under fed conditions” value (fed vs fasting, all subjects) was 12% and the “Cmax lower under fed conditions” value (fed vs fasting, all subjects) was 27%. For the same compound, the “Delay of mean Tmax (absorption) by food” value (fed vs fasting, all subjects) was “about 3 h”, the “half-life higher under fed conditions” value (fed vs fasting, all subjects) was 15% and the “Delay of Tmax by food” value (fed vs fasting, only subjects with CYP2C19*1/*1) was 3 h. For the same compound, the AUC(0-inf) [6] was 1.98 ± 1.22 µg·h/mL, the CL/F [6] was 0.53 L/h/kg and the Vd/F [6] was 0.69 ± 0.46 L/kg. The half-life [6] was 1 ± 0.3 h, the AUC(0-inf) [7] was 1.71 ± 1.25 µg·h/mL and the CL/F [7] was 0.57 L/h/kg. It also gave a Vd/F [7] of 0.84 ± 0.54 L/kg, a Cmax (female, human, plasma, oral, only CYP2C19*1/*1 subjects, Fed, women, mean ± SD, read-out: Cmax) of 0.64 ± 0.275 µg/mL and a Tmax (female, human, plasma, oral, only CYP2C19*1/*1 subjects, Fed, women, mean ± SD, read-out: Tmax) of 5.4 ± 0.4 h. For the same compound, the AUC(0-inf) [8] was 2.02 ± 1.5 µg·h/mL, the CL/F [8] was 0.56 L/h/kg and the Vd/F [8] was 0.63 ± 0.31 L/kg. For the same compound, the half-life [8] was 1 ± 0.4 h, the Cmax (female, human, plasma, po, Fast, women, single oral dose, mean ± SD, read-out: Cmax) was 0.999 ± 0.438 µg/mL and the Tmax (female, human, plasma, po, Fast, women, single oral dose, mean ± SD, read-out: Tmax) was 1.9 ± 0.6 h. For the same compound, the AUC(0-inf) [9] was 1.72 ± 1.4 µg·h/mL, the CL/F [9] was 0.73 L/h/kg and the Vd/F [9] was 1.3 ± 1.38 L/kg. The Cmax (female, human, plasma, po, Fed, women, single oral dose, mean ± SD, read-out: Cmax) was 0.64 ± 0.64 µg/mL, the Tmax (female, human, plasma, po, Fed, women, single oral dose, mean ± SD, read-out: Tmax) was 5.4 ± 1 h and the AUC(0-inf) [10] was 1.47 ± 1.4 µg·h/mL. The CL/F [10] was 0.62 L/h/kg, the Vd/F [10] was 0.68 ± 0.46 L/kg and the Cmax (male, human, plasma, oral, only CYP2C19*1/*1 subjects, Fast, men, mean ± SD, read-out: Cmax) was 0.654 ± 0.306 µg/mL. For the same compound, the AUC(0-inf) [11] was 1.41 ± 1.16 µg·h/mL, the CL/F [11] was 0.63 L/h/kg and the Vd/F [11] was 0.73 ± 0.38 L/kg. It also gave a half-life [11] of 1 ± 0.4 h, a Tmax (male, human, plasma, oral, only CYP2C19*1/*1 subjects, Fed, men, mean ± SD, read-out: Tmax) of 4.3 ± 1 h and an AUC(0-inf) [12] of 2.38 ± 2.48 µg·h/mL. The CL/F [12] was 0.5 L/h/kg, the Vd/F [12] was 0.65 ± 0.38 L/kg and the Tmax (male, human, plasma, po, Fast, men, single oral dose, mean ± SD, read-out: Tmax) was 2.1 ± 0.7 h. The AUC(0-inf) [13] was 2.14 ± 2.28 µg·h/mL, the CL/F [13] was 0.57 L/h/kg and the Vd/F [13] was 0.75 ± 0.52 L/kg. For the same compound, the Cmax (male, human, plasma, po, Fed, men, single oral dose, mean ± SD, read-out: Cmax) was 0.725 ± 0.448 µg/mL, the Tmax (male, human, plasma, po, Fed, men, single oral dose, mean ± SD, read-out: Tmax) was 4.5 ± 0.9 h and the Ke (only CYP2C19*1/*1 subjects, Fast, men and women, mean ± SD) was 0.81 ± 0.23. For the same compound, the Ke [14] was 0.82 ± 0.25, the Tmax [14] was 2.0 ± 0.7 h and the Cmax [15] was 1.0943 ± 0.3666 µg/mL. The Ke [15] was 0.79 ± 0.23, the Ke [16] was 0.80 ± 0.36 and the Tmax [16] was 4.7 ± 1.0 h. The Cmax [17] was 0.5828 ± 0.4191 µg/mL, the Ke [17] was 0.84 ± 0.39 and the Ke (only CYP2C19*1/*1 subjects, Fed, women, mean ± SD) was 0.72 ± 0.32.

Reference: article PMC7382816 (BMC Pharmacology & Toxicology, 2020)
